From patent publication US6916923B2 (Hoffmann-La Roche Inc., priority 1999, dated 2005)
pIC50: −log10 of the molar value.

Experiments:
[1] = target: T1, Recombinant active human Cyclin E/CDK2 complexes (Homo sapiens, UniProt P24941); experiment: CDK2 FlashPlate Assay (inhibition of Rb phosphorylation); format: biochemical; conditions: Cyclin E/CDK2, Rb substrate, 33P-ATP, 25 minutes at room temperature; read-out: Inhibition of Cdk2 - IC50 Range
T1 construct: made in house; host or cells: insect cells
Protocol: To determine inhibition of CDK2 activity, purified recombinant retinoblastoma (Rb) protein was coated on 96 well FlashPlates (New England Nuclear, Boston, Mass.). Rb is a natural substrate for phosphorylation by CDK2 (Herwig and Strauss Eurr. J. Biochem., Vol. 246 (1997) pp. 581-601 and references therein). Recombinant active human Cyclin E/CDK2 complexes were partially purified from extracts of insect cells. The active Cyclin E/CDK2 was added to the Rb-coated FlashPlates along with ^33P-ATP and dilutions of test compounds. Plates were incubated for 25 minutes at room temperature with shaking, then washed and counted in the Topcount scintillation counter (Packard Instrument Co., Downers Grove, Ill.). Dilutions of test compounds were tested in duplicate in each assay. The percent inhibition of Rb phosphorylation, which is a measure of the inhibition of CDK2 activity, was determined according to the following formula: [formula] where “test compound” refers to the average counts per minute of the test duplicates, “nonspecific” refers to the average counts per minute when no Cyclin E/CDK2 was added, and “total” refers to the average counts per minute when no compound was added.

[2] = tested on: colon adenocarcinoma line SW480; experiment: SW480 cell-based antiproliferative (MTT) assay; conditions: Homo sapiens, SW480, 144 h, 1000 cells per well, 6 days post addition of test compound, read-out: Antiproliferative Activity SW480 (colon) Assay - IC50 Range
Protocol: (§1) The estrogen receptor negative epithelial breast carcinoma line (MDA-MB-435) was purchased from American Type Cell Culture Collection (ATCC; Rockville, Md.) and was grown in the medium recommended by ATCC. For analysis of the effect of the test compounds on growth of these cells, the cells were plated at 2000 cells per well in a 96-well tissue culture plate, and were incubated overnight at 37° C. with 5% CO2. The next day, the test compounds were dissolved in 100% dimethyl sulfoxide (DMSO) to yield a 10 mM stock solution. Each compound was diluted with sterile medium to 1 mM in a sufficient quantity to yield a final concentration of 120 μM. The compounds were then serially diluted in medium with 1.2% DMSO. One-fourth final volume of the diluted compounds was transferred to 96 well plates. Test compounds were assayed in duplicate. DMSO was added to a row of “control cells” such that the final concentration of DMSO in each well was 0.3%. Wells to which no cells were added served as the “blank.” Wells to which no inhibitor was added served as “no inhibitor control”. The plates were returned to the incubator, and 5 days post addition of test compound, were analyzed as described below.
(§2) 3-(4,5-Dimethylthiazole-2-yl)-2,5-diphenyl-2H-tetrazolium bromide (thiazolyl blue; MTT) was added to each well to yield a final concentration of 1 mg/mL. The plates were then incubated at 37° C. for 3 hours. The plates were centrifuged at 1000 rpm for 5 minutes prior to aspiration of the MTT-containing medium. The MTT-containing medium was then removed and 100 μL 100% ethanol was added to each well to dissolve the resulting formazan metabolite. To ensure complete dissolution, plates were shaken for 15 minutes at room temperature. Absorbencies were read in a microtiter plate reader (Molecular Dynamics) at a wavelength of 570 nm with a 650 nm reference. Percent inhibition was calculated by subtracting the absorbance of the blank (no cell) wells from all wells, then subtracting the division of the average absorbance of each test duplicate by the average of the controls from 1.00. Inhibitory concentrations (IC50) were determined from the linear regression of a plot of the logarithm of the concentration versus the percent inhibition.
(§3) The colon adenocarcinoma line SW480 and the colon carcinoma line HCT-116 also were obtained from the ATCC and were tested according to the same protocol provided above for MDA-MB435 cell based assay with the following modifications. Cell line SW480 was plated at 1000 cells per well and analyzed at 6 days post addition of the test compound. Cell line HCT-116 was plated at 1000 cells per well and analyzed at 4 days post addition of test compound.

[3] = tested on: estrogen receptor negative epithelial breast carcinoma line (MDA-MB-435); experiment: MDA-MB-435 cell-based antiproliferative (MTT) assay; conditions: Homo sapiens, MDA-MB-435, 120 h, 2000 cells per well, 5 days post addition of test compound, read-out: Antiproliferative Activity of MDA-MB435 (breast) Assay - IC50 Range
Protocol: as §1, §2

[4] = tested on: colon carcinoma line HCT-116; experiment: HCT-116 cell-based antiproliferative (MTT) assay; conditions: Homo sapiens, HCT-116, 96 h, 1000 cells per well, 4 days post addition of test compound, read-out: Antiproliferative Activity HCT 116 (colon) Assay - IC50 Range
Protocol: as §1, §2, §3

| Compound | pIC50 [1] | pIC50 [2] | pIC50 [3] | pIC50 [4] |
| --- | --- | --- | --- | --- |
| Cc1[nH]nc2c1N=C(c1ccccc1F)c1ccccc1N2 [Compound B21, 3-methyl-5-(2-fluorophenyl)-pyrazolo[3,4][1,4]benzodiazepine] | 6.00 to 8.00 | 6.00 to 8.00 | 5.00 to 5.96 |  |
| Cc1[nH]nc2c1N=C(c1ccccc1)c1cc(F)ccc1N2 [Compound B22, 3-methyl-5-phenyl-7-fluoro-pyrazolo[3,4][1,4]benzodiazepine] | 6.00 to 8.00 | 5.00 to 5.96 | 6.00 to 8.00 |  |
| O=[N+]([O-])c1ccc2c(c1)C(c1ccccc1Cl)=Nc1c(n[nH]c1-c1ccccc1)N2 [Compound B23, 3-phenyl-5-(2-chlorophenyl)-7-nitro-pyrazolo[3,4][1,4]benzodiazepine] | 6.00 to 8.00 | 4.52 to 5.00 |  | 4.52 to 5.00 |
| Cc1[nH]nc2c1N=C(c1ccccc1F)c1cc(I)ccc1N2 [Compound B29, 3-methyl-5-(2-fluorophenyl)-7-iodo-pyrazolo[3,4][1,4]benzodiazepine] | 6.00 to 8.00 | 5.00 to 5.96 | 6.00 to 8.00 |  |
| O=[N+]([O-])c1ccc2c(c1)C(c1ccccc1)=Nc1c(n[nH]c1C1CC1)N2 [Compound D18] | 6.00 to 8.00 |  |  | 4.52 to 5.00 |
| Clc1ccccc1C1=Nc2c[nH]nc2Nc2ccccc21 [Compound A21, 5-(2-chlorophenyl)-pyrazolo[3,4][1,4]benzodiazepine] | 6.00 to 8.00 | 4.52 to 5.00 |  | 4.52 to 5.00 |
| Cc1[nH]nc2c1N=C(c1ccccc1Cl)c1ccccc1N2 [Compound B30, 3-methyl-5-(2-chlorophenyl)-pyrazolo[3,4][1,4]benzodiazepine] | 6.00 to 8.00 | 5.00 to 5.96 | 5.00 to 5.96 |  |
| O=[N+]([O-])c1ccc2c(c1)C(c1ccccc1Cl)=Nc1c(n[nH]c1CO)N2 [Compound C14, 3-hydroxymethyl-5-(2-chlorophenyl)-7-nitro-pyrazolo[3,4][1,4]benzodiazepine] | 6.00 to 8.00 | 6.00 to 8.00 | 6.00 to 8.00 |  |
| CSc1ccc(-c2[nH]nc3c2N=C(c2ccccc2Cl)c2cc([N+](=O)[O-])ccc2N3)cc1 [Compound D11] | 6.00 to 8.00 |  |  | 4.52 to 5.00 |
| O=[N+]([O-])c1ccc2c(c1)C(c1ccccc1Cl)=Nc1c(n[nH]c1-c1ccc[nH]1)N2 [Compound B1, 3-(2-pyrrolyl)-5-(2-chlorophenyl)-7-nitro-pyrazolo[3,4][1,4]benzodiazepine] | 6.00 to 8.00 | 5.00 to 5.96 |  | 5.00 to 5.96 |
| Cc1[nH]nc2c1N=C(c1ccccc1Cl)c1cc(NS(C)(=O)=O)ccc1N2 [Compound C9, N-(3-methyl-5-(2-chlorophenyl)-pyrazolo[3,4][1,4]benzodiazepin-7-yl)-methanesulfonamide] | 6.00 to 8.00 | 6.00 to 8.00 | 6.00 to 8.00 |  |
| NC(=O)c1ccc2c(c1)C(c1ccccc1F)=Nc1c[nH]nc1N2 [Compound D50] | 6.00 to 8.00 | 5.00 to 5.96 |  | 5.00 to 5.96 |
| Cc1[nH]nc2c1N=C(c1ccccc1Cl)c1cc(N)ccc1N2 [Compound C4] | 6.00 to 8.00 | 6.00 to 8.00 | 6.00 to 8.00 |  |
| CC(C)c1[nH]nc2c1N=C(c1ccccc1Cl)c1cc(N)ccc1N2 [Compound C6, 3-(1-methylethyl)-5-(2-chlorophenyl)-7-amino-pyrazolo[3,4][1,4]benzodiazepine] | 6.00 to 8.00 |  | 5.00 to 5.96 |  |
| CS(=O)(=O)c1ccc2c(c1)C(c1ccccc1)=Nc1c[nH]nc1N2 [Compound A14, 5-phenyl-7-methanesulfonyl-pyrazolo[3,4][1,4]benzodiazepine] | 5.00 to 6.00 |  |  | 4.52 to 5.00 |
| Cc1ccccc1-c1[nH]nc2c1N=C(c1ccccc1Cl)c1cc([N+](=O)[O-])ccc1N2 [Compound D37] | 5.00 to 6.00 | 4.52 to 5.00 |  | 4.52 to 5.00 |
| Cc1[nH]nc2c1N=C(c1ccccc1)c1cc(Cl)ccc1N2 [Compound B19, 3-methyl-5-phenyl-7-chloro-pyrazolo[3,4][1,4]benzodiazepine] | 6.00 to 8.00 | 5.00 to 5.96 | 5.00 to 5.96 |  |
| C=CC(=O)Nc1ccc2c(c1)C(c1ccccc1Cl)=Nc1c(n[nH]c1C)N2 [Compound C8, N-(3-methyl-5-(2-chlorophenyl)-pyrazolo[3,4][1,4]benzodiazepin-7-yl)-2-propenamide] | 6.00 to 8.00 | 6.00 to 8.00 | 6.00 to 8.00 |  |
| N#Cc1ccc2c(c1)C(c1ccccc1F)=Nc1c(n[nH]c1CO)N2 [Compound B35, 3-hydroxymethyl-5-(2-fluorophenyl)-pyrazolo[3,4][1,4]-benzodiazepine-7-carbonitrile] | 6.00 to 8.00 | 6.00 to 8.00 | 6.00 to 8.00 |  |
| O=Cc1[nH]nc2c1N=C(c1ccccc1Cl)c1cc([N+](=O)[O-])ccc1N2 [Compound C13, 5-(2-chlorophenyl)-7-nitro-pyrazolo[3,4][1,4]benzodiazepine-3-carboxaldehyde] | 6.00 to 8.00 |  | 6.00 to 8.00 |  |
| O=[N+]([O-])c1ccc2c(c1)C(c1ccccc1)=Nc1c[nH]nc1N2 [Compound A16, 5-phenyl-7-nitro-pyrazolo[3,4][1,4]benzodiazepine] | 6.00 to 8.00 |  |  | 4.52 to 5.00 |
| Cc1[nH]nc2c1N=C(c1ccccc1F)c1cc([N+](=O)[O-])ccc1N2 [Compound B31, 3-methyl-5-(2-fluorophenyl)-7-nitro-pyrazolo[3,4][1,4]benzodiazepine] | 6.00 to 8.00 | 6.00 to 8.00 | 6.00 to 8.00 |  |
| COCc1[nH]nc2c1N=C(c1ccccc1Cl)c1cc([N+](=O)[O-])ccc1N2 [Compound C16, 3-methoxymethyl-5-(2-chlorophenyl)-7-nitro-pyrazolo[3,4][1,4]benzodiazepine] | 6.00 to 8.00 |  | 5.00 to 5.96 |  |
| O=[N+]([O-])c1ccc2c(c1)C(c1ccccc1Cl)=Nc1c(n[nH]c1-c1ccco1)N2 [Compound D7] | 6.00 to 8.00 | 4.52 to 5.00 |  | 4.52 to 5.00 |
| Cc1[nH]nc2c1N=C(c1ccccc1Cl)c1cc(Cl)ccc1N2 [Compound B20, 3-methyl-5-(2-chlorophenyl)-7-chloro-pyrazolo[3,4][1,4]benzodiazepine] | 6.00 to 8.00 | 5.00 to 5.96 | 5.00 to 5.96 |  |
| O=[N+]([O-])c1ccc2c(c1)C(c1ccccc1Cl)=Nc1c(n[nH]c1-c1cccs1)N2 [Compound D6] | 6.00 to 8.00 | 4.52 to 5.00 |  | 4.52 to 5.00 |
| CC(=O)Nc1ccc2c(c1)C(c1ccccc1Cl)=Nc1c(n[nH]c1C)N2 [Compound C7, N-(3-methyl-5-(2-chlorophenyl)-pyrazolo[3,4][1,4]benzodiazepin-7-yl)-acetamide] | 6.00 to 8.00 | 6.00 to 8.00 | 6.00 to 8.00 |  |
| COc1ccc2c(c1)C(c1ccccc1Cl)=Nc1c(n[nH]c1C)N2 [Compound B18, 3-methyl-5-(2-chlorophenyl)-7-methoxy-pyrazolo[3,4][1,4]benzodiazepine] | 6.00 to 8.00 | 5.00 to 5.96 | 5.00 to 5.96 |  |
| O=C(NCCO)c1ccc2c(c1)C(c1ccccc1F)=Nc1c[nH]nc1N2 [Compound C2, N-(2-hydroxyethyl)-5-(2-fluorophenyl)-pyrazolo[3,4][1,4]benzodiazepine-7-carboxamide] | 6.00 to 8.00 |  |  | 4.52 to 5.00 |
